From patent US20240201589A1, “ACTINIC RAY-SENSITIVE OR RADIATION-SENSITIVE RESIN COMPOSITION, ACTINIC RAY-SENSITIVE OR RADIATION-SENSITIVE FILM, PATTERN FORMING METHOD, AND METHOD FOR MANUFACTURING ELECTRONIC DEVICE” (FUJIFILM Corporation, priority 2021, published 2024)

Assay: Acid dissociation constants pKa of acid generated from compound (I), by computation (ACD/Labs software package 1; Gaussian 16 DFT if not computable)
Conditions: Table 1; values equal the difference between maximum and minimum pKa of the generated acid groups
Excerpt: In the present specification, the acid dissociation constant (pKa) is the pKa in an aqueous solution and is specifically a value determined by computation using the following software package 1 based on a Hammett substituent constant and a database of known literature values.
All pKa values in the present specification are values determined by computation using this software package.
Software package 1: Advanced Chemistry Development (ACD/Labs) Software V 8.14 for Solaris (1994-2007 ACD/Labs).
In the present specification, the pKa is a value determined by computation using the software package 1 based on the Hammett substituent constant and the database of known literature values as described above. When the pKa cannot be computed using this method, a value obtained using Gaussian 16 based on the DFT (density functional theory) is used.
The pKa values of the at least two acid groups generated from the compound (I) upon irradiation with actinic rays or radiation are determined using the following method.
(1) Suppose that all the acid anionic groups included in the compound (I) are replaced with their corresponding acid groups to generate an acid group-containing compound (PIA). In this case, there are two cases depending on the structure of the compound (I). In one case (case A), the acid group-containing compound (PIA) generated is a single compound (single molecule) having a plurality of acid groups. In the other case (case B), a plurality of compounds (plurality of molecules) each having at least one acid group are formed.
(2) The case A (its one specific example is mode 1 described below) will be described. A compound in which, among the plurality of acid groups included in the acid group-containing compound (PIA), an acid group having the smallest acid dissociation constant is reconverted to the corresponding acid anionic group is defined as an acid group-containing compound (PIA-1). The pKa when the acid group-containing compound (PIA) is converted to the acid group-containing compound (PIA-1) is determined and used as the pKa of the acid group reconverted to the acid anionic group. Next, a compound in which, among one or the plurality of acid groups included in the acid group-containing compound (PIA-1), an acid group having the smallest acid dissociation constant (when only one acid group is present, this acid group is used) is reconverted to the corresponding acid anionic group is defined as an acid group-containing compound (PIA-2). The pKa when the acid group-containing compound (PIA-1) is converted to the acid group-containing compound (PIA-2) is determined and used as the pKa of the acid group reconverted to the acid anionic group. This procedure is repeated until the resulting compound has no acid group, and the pKa values of the plurality of acid groups included in the acid group-containing compound (PIA) are thereby determined.
In the above method, when the number of acid groups having the smallest acid dissociation constant among the plurality of acid groups is two or more, one of these acid groups is arbitrarily selected, and the pKa when the compound is converted to a compound (PIA #) obtained by reconverting the selected acid group to its corresponding acid anionic group is determined. As for the pKa value of each of the remaining (unselected) acid groups, the pKa when the compound (PIA #) is converted to a “compound (PIA ##) obtained by reconverting an acid group newly selected from the remaining acid groups to its corresponding acid anionic group” is determined and used.
For a compound having one acid group, the pKa when the acid group in this compound is reconverted to the corresponding acid anionic group is used as the pKa of the acid group. When the compound having at least one acid group is a compound having a plurality of acid groups, the pKa of each acid group is determined using the method described in (2) above. […]

Row | Compound | pKa
1 | O=C(NC(C(F)(F)F)C(F)(F)S(=O)(=O)[O-])c1ccc([S+](c2ccccc2)c2ccccc2S(=O)(=O)O)cc1 (stereo not shown) [Compound X-3] | 1.24
2 | O=C([N-]S(=O)(=O)C(F)(F)C(F)(F)C(F)(F)S(=O)(=O)[N-]C(=O)c1ccccc1[S+](c1ccccc1)c1ccccc1)c1ccccc1[I+]c1ccccc1 [Compound X-9] | 0.89
3 | O=S(=O)(O)c1ccc([S+](c2ccccc2)c2ccc(OCC(F)(F)S(=O)(=O)[O-])cc2)cc1 (stereo not shown) [Compound X-6] | 0.77
4 | O=C(NC(=O)C(F)(F)S(=O)(=O)[O-])c1ccc([S+](c2ccccc2)c2ccccc2)cc1 [Compound X-1] | 9.96
5 | Cc1ccc([I+]c2ccc(C(=O)NS(=O)(=O)C(F)(F)C(F)(F)C(F)(F)S(=O)(=O)[N-]S(=O)(=O)C(F)(F)F)cc2)cc1 [Compound X-12] | 5.67
6 | COc1ccc([I+]c2cccc(C(=O)NS(=O)(=O)C(F)(F)C(F)(F)C(F)(F)S(=O)(=O)[N-]S(=O)(=O)C(F)(F)F)c2)cc1 [Compound X-11] | 10.26
7 | O=C([N-]C(=O)c1ccccc1[I+]c1ccccc1)c1ccc([I+]c2ccc(OS(=O)(=O)C(F)(F)C(F)(F)C(F)(F)S(=O)(=O)[O-])cc2)cc1 [Compound X-16] | 12.11
